23 molecules from patent US8778871B2 (Takeda Pharmaceutical Company Limited, priority 2004, dated 2014) can be followed below.

Non-standard residues stand in square brackets, D forms with d. Residues, ends and D or L forms follow the SMILES beside them. No end group written: not given here. Phe(3-Cl) = N[C@@H](Cc1cccc(Cl)c1)C(=O)O; Phe(4-Cl) = N[C@@H](Cc1ccc(Cl)cc1)C(=O)O; Phe(4-NH2) = Nc1ccc(C[C@H](N)C(=O)O)cc1; Phe(2-Cl) = N[C@@H](Cc1ccccc1Cl)C(=O)O; 1Nal = N[C@@H](Cc1cccc2ccccc12)C(=O)O; 2Nal = N[C@@H](Cc1ccc2ccccc2c1)C(=O)O; Arg(Me) = CNC(=N)NCCC[C@H](N)C(=O)O; azaGly = NNC(=O)O

T1 sequence (Q969F8 whole entry L364H): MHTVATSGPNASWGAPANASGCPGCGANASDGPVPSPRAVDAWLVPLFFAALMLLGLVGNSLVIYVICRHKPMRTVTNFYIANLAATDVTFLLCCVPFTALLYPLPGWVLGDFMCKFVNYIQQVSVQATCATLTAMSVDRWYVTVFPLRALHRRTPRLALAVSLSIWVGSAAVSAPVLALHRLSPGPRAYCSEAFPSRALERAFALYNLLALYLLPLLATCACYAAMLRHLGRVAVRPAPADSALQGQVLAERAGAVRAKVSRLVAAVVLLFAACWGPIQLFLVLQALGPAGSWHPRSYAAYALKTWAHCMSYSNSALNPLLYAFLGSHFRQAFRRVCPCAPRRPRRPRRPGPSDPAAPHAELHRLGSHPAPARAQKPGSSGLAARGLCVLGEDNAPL

One experiment addresses T1, hOT7T175 (Homo sapiens, UniProt Q969F8, L364H).
T1 construct: expressed in transfected cells
Experiment: not given
The experiment is classed as cell-based. The conditions noted are these: hOT7T175/CHO, FLIPR, evaluation for 40 seconds after initiation of the reaction.
As to `CC(C)C[C@H](NC(=O)CNC(=O)[C@H](Cc1ccccc1)NC(=O)[C@H](CO)NC(=O)[C@H](CC(N)=O)NC(=O)[C@@H](Cc1c[nH]c2ccccc12)NC(=O)[C@H](CC(N)=O)NC(=O)[C@@H](N)Cc1ccc(O)cc1)C(=O)N[C@@H](CCCNC(=N)N)C(=O)N[C@@H](Cc1ccccc1)C(N)=O` [Compound No. 40], the “Specific Act. (EC50/MS10 EC50)” value came to 1.6.
`CC(C)C[C@H](NC(=O)CNC(=O)[C@H](Cc1ccccc1)NC(=O)[C@H](CO)NC(=O)[C@H](CC(N)=O)NC(=O)[C@H](Cc1c[nH]c2ccccc12)NC(=O)[C@@H](CC(N)=O)NC(=O)[C@@H](N)Cc1ccc(O)cc1)C(=O)N[C@@H](CCCNC(=N)N)C(=O)N[C@@H](Cc1ccccc1)C(N)=O` [Compound No. 41]: the “Specific Act. (EC50/MS10 EC50)” value was 2.7.
Take `CC(C)C[C@H](NC(=O)CNC(=O)[C@H](Cc1ccccc1)NC(=O)[C@H](CO)NC(=O)[C@H](CC(N)=O)NC(=O)[C@H](Cc1c[nH]c2ccccc12)NC(=O)[C@H](CC(N)=O)NC(=O)[C@H](N)Cc1ccc(O)cc1)C(=O)N[C@@H](CCCNC(=N)N)C(=O)N[C@@H](Cc1ccccc1)C(N)=O` [Compound No. 42]: the “Specific Act. (EC50/MS10 EC50)” value is listed as 1.6.
Turning to `CC(C)C[C@H](NC(=O)CNC(=O)[C@H](Cc1ccccc1)NC(=O)[C@H](CO)NC(=O)[C@H](CC(N)=O)NC(=O)[C@H](Cc1c[nH]c2ccccc12)NC(=O)[C@H](CC(N)=O)NC(=O)[C@@H](N)Cc1ccc(O)cc1)C(=O)N[C@@H](CCCCNC(=N)N)C(=O)N[C@@H](Cc1ccccc1)C(N)=O` [Compound No. 97], the “Specific Act. (EC50/MS10 EC50)” value was 2.9.

For the next experiment, the target named is T1, hOT7T175. The experiment is described as follows: Intracellular Ca ion level-increasing activity using FLIPR (180 seconds; specific activity to Metastin (1-54)). In kind it is cell-based. The conditions noted are these: hOT7T175/CHO, relative to Metastin (1-54) = 1.
With `CC(C)C[C@H](NC(=O)CNC(=O)[C@H](Cc1ccccc1)NC(=O)[C@H](CO)NC(=O)[C@H](CC(N)=O)NC(=O)[C@@H](Cc1c[nH]c2ccccc12)NC(=O)[C@H](CC(N)=O)NC(=O)[C@@H](N)Cc1ccc(O)cc1)C(=O)N[C@@H](CCCNC(=N)N)C(=O)N[C@@H](Cc1ccccc1)C(N)=O` [Compound No. 40], the “Specific Act. (intracellular Ca ion level-increasing activity, specific activity to Metastin (1-54))” value is reported as 30.
Still for that read-out and setting: for `CC(C)C[C@H](NC(=O)CNC(=O)[C@H](Cc1ccccc1)NC(=O)[C@H](CO)NC(=O)[C@H](CC(N)=O)NC(=O)[C@H](Cc1c[nH]c2ccccc12)NC(=O)[C@@H](CC(N)=O)NC(=O)[C@@H](N)Cc1ccc(O)cc1)C(=O)N[C@@H](CCCNC(=N)N)C(=O)N[C@@H](Cc1ccccc1)C(N)=O` [Compound No. 41] the value was 10; for `CC(C)C[C@H](NC(=O)CNC(=O)[C@H](Cc1ccccc1)NC(=O)[C@H](CO)NC(=O)[C@H](CC(N)=O)NC(=O)[C@H](Cc1c[nH]c2ccccc12)NC(=O)[C@H](CC(N)=O)NC(=O)[C@H](N)Cc1ccc(O)cc1)C(=O)N[C@@H](CCCNC(=N)N)C(=O)N[C@@H](Cc1ccccc1)C(N)=O` [Compound No. 42], 30; for `CC(C)C[C@H](NC(=O)CNC(=O)[C@H](Cc1ccccc1)NC(=O)[C@H](CO)NC(=O)[C@H](CC(N)=O)NC(=O)[C@H](Cc1c[nH]c2ccccc12)NC(=O)[C@H](CC(N)=O)NC(=O)[C@@H](N)Cc1ccc(O)cc1)C(=O)N[C@@H](CCCCNC(=N)N)C(=O)N[C@@H](Cc1ccccc1)C(N)=O` [Compound No. 97], 10.
For the molecule `CNC(=N)NCCC[C@H](NC(=O)[C@H](CC(C)C)NC(=O)NNC(=O)[C@H](Cc1ccccc1)NC(=O)[C@H](CO)NC(=O)[C@H](CC(N)=O)NC(=O)[C@H](C)NC(=O)[C@H](CC(N)=O)NC(=O)[C@H](N)Cc1ccc(O)cc1)C(=O)N[C@@H](Cc1ccccc1)C(N)=O` [Compound No. 235, D-Tyr-Asn-Ala-Asn-Ser-Phe-AzaGly-Leu-Arg(Me)-Phe-NH2] (H-[dY]NANSF[azaGly]L[Arg(Me)]F-NH2), the “Specific Act. (intracellular Ca ion level-increasing activity, specific activity to Metastin (1-54))” value is listed as 1.
On to `CNC(=N)NCCC[C@H](NC(=O)[C@H](CC(C)C)NC(=O)NNC(=O)[C@H](Cc1ccccc1)NC(=O)[C@H](CO)NC(=O)[C@H](CC(N)=O)NC(=O)[C@@H](Cc1c[nH]c2ccccc12)NC(=O)[C@H](CC(N)=O)NC(=O)[C@H](N)Cc1ccc(O)cc1)C(=O)N[C@@H](Cc1ccccc1)C(N)=O` [Compound No. 236, D-Tyr-Asn-D-Trp-Asn-Ser-Phe-AzaGly-Leu-Arg(Me)-Phe-NH2], for which the “Specific Act. (intracellular Ca ion level-increasing activity, specific activity to Metastin (1-54))” value was 2.
The same measure, in the same setting: for `CNC(=N)NCCC[C@H](NC(=O)[C@H](CC(C)C)NC(=O)NNC(=O)[C@H](Cc1ccccc1)NC(=O)[C@H](CO)NC(=O)[C@H](CC(N)=O)NC(=O)[C@H](Cc1c[nH]c2ccccc12)NC(=O)[C@@H](CC(N)=O)NC(=O)[C@H](N)Cc1ccc(O)cc1)C(=O)N[C@@H](Cc1ccccc1)C(N)=O` [Compound No. 237, D-Tyr-D-Asn-Trp-Asn-Ser-Phe-AzaGly-Leu-Arg(Me)-Phe-NH2] the value was 3.
In the case of `CNC(=N)NCCC[C@H](NC(=O)[C@H](CC(C)C)NC(=O)NNC(=O)[C@H](Cc1ccccc1)NC(=O)[C@H](CO)NC(=O)[C@H](CC(N)=O)NC(=O)[C@@H](Cc1c[nH]c2ccccc12)NC(=O)[C@@H](CC(N)=O)NC(=O)[C@H](N)Cc1ccc(O)cc1)C(=O)N[C@@H](Cc1ccccc1)C(N)=O` [Compound No. 238, D-Tyr-D-Asn-D-Trp-Asn-Ser-Phe-AzaGly-Leu-Arg(Me)-Phe-NH2], the “Specific Act. (intracellular Ca ion level-increasing activity, specific activity to Metastin (1-54))” value is given as 1.
As to `CNC(=N)NCCC[C@H](NC(=O)[C@H](CC(C)C)NC(=O)NNC(=O)[C@H](Cc1ccccc1)NC(=O)[C@H](CO)NC(=O)[C@H](CC(N)=O)NC(=O)[C@H](Cc1ccccc1)NC(=O)[C@H](CC(N)=O)NC(=O)[C@H](N)Cc1ccc(O)cc1)C(=O)N[C@@H](Cc1ccccc1)C(N)=O` [Compound No. 244, D-Tyr-Asn-Phe-Asn-Ser-Phe-AzaGly-Leu-Arg(Me)-Phe-NH2] (H-[dY]NFNSF[azaGly]L[Arg(Me)]F-NH2), the “Specific Act. (intracellular Ca ion level-increasing activity, specific activity to Metastin (1-54))” value stood at 1.
Regarding `CNC(=N)NCCC[C@H](NC(=O)[C@H](CC(C)C)NC(=O)NNC(=O)[C@H](Cc1ccccc1)NC(=O)[C@H](CO)NC(=O)[C@H](CC(N)=O)NC(=O)[C@H](Cc1cccc2ccccc12)NC(=O)[C@H](CC(N)=O)NC(=O)[C@H](N)Cc1ccc(O)cc1)C(=O)N[C@@H](Cc1ccccc1)C(N)=O` [Compound No. 245, D-Tyr-Asn-Nal(1)-Asn-Ser-Phe-AzaGly-Leu-Arg(Me)-Phe-NH2] (H-[dY]N[1Nal]NSF[azaGly]L[Arg(Me)]F-NH2), the “Specific Act. (intracellular Ca ion level-increasing activity, specific activity to Metastin (1-54))” value came to 1.
As for `CNC(=N)NCCC[C@H](NC(=O)[C@H](CC(C)C)NC(=O)NNC(=O)[C@H](Cc1ccccc1)NC(=O)[C@H](CO)NC(=O)[C@H](CC(N)=O)NC(=O)[C@H](Cc1ccc2ccccc2c1)NC(=O)[C@H](CC(N)=O)NC(=O)[C@H](N)Cc1ccc(O)cc1)C(=O)N[C@@H](Cc1ccccc1)C(N)=O` [Compound No. 246, D-Tyr-Asn-Nal(2)-Asn-Ser-Phe-AzaGly-Leu-Arg(Me)-Phe-NH2] (H-[dY]N[2Nal]NSF[azaGly]L[Arg(Me)]F-NH2), the “Specific Act. (intracellular Ca ion level-increasing activity, specific activity to Metastin (1-54))” value was 2.
Turning to `CNC(=N)NCCC[C@H](NC(=O)[C@H](CC(C)C)NC(=O)NNC(=O)[C@H](Cc1ccccc1)NC(=O)[C@H](CO)NC(=O)[C@H](CC(N)=O)NC(=O)[C@H](Cc1ccccc1Cl)NC(=O)[C@H](CC(N)=O)NC(=O)[C@H](N)Cc1ccc(O)cc1)C(=O)N[C@@H](Cc1ccccc1)C(N)=O` [Compound No. 247, D-Tyr-Asn-Phe(2Cl)-Asn-Ser-Phe-AzaGly-Leu-Arg(Me)-Phe-NH2] (H-[dY]N[Phe(2-Cl)]NSF[azaGly]L[Arg(Me)]F-NH2), the “Specific Act. (intracellular Ca ion level-increasing activity, specific activity to Metastin (1-54))” value came out at 1.
On the same count and under the same terms, for `CNC(=N)NCCC[C@H](NC(=O)[C@H](CC(C)C)NC(=O)NNC(=O)[C@H](Cc1ccccc1)NC(=O)[C@H](CO)NC(=O)[C@H](CC(N)=O)NC(=O)[C@H](Cc1cccc(Cl)c1)NC(=O)[C@H](CC(N)=O)NC(=O)[C@H](N)Cc1ccc(O)cc1)C(=O)N[C@@H](Cc1ccccc1)C(N)=O` [Compound No. 248, D-Tyr-Asn-Phe(3Cl)-Asn-Ser-Phe-AzaGly-Leu-Arg(Me)-Phe-NH2] (H-[dY]N[Phe(3-Cl)]NSF[azaGly]L[Arg(Me)]F-NH2) the value was 2; for `CNC(=N)NCCC[C@H](NC(=O)[C@H](CC(C)C)NC(=O)NNC(=O)[C@H](Cc1ccccc1)NC(=O)[C@H](CO)NC(=O)[C@H](CC(N)=O)NC(=O)[C@H](Cc1ccc(Cl)cc1)NC(=O)[C@H](CC(N)=O)NC(=O)[C@H](N)Cc1ccc(O)cc1)C(=O)N[C@@H](Cc1ccccc1)C(N)=O` [Compound No. 249, D-Tyr-Asn-Phe(4Cl)-Asn-Ser-Phe-AzaGly-Leu-Arg(Me)-Phe-NH2] (H-[dY]N[Phe(4-Cl)]NSF[azaGly]L[Arg(Me)]F-NH2), 1.
On the same count and under the same terms, for `CNC(=N)NCCC[C@H](NC(=O)[C@H](CC(C)C)NC(=O)NNC(=O)[C@H](Cc1ccccc1)NC(=O)[C@H](CO)NC(=O)[C@H](CC(N)=O)NC(=O)[C@H](Cc1ccc(N)cc1)NC(=O)[C@H](CC(N)=O)NC(=O)[C@H](N)Cc1ccc(O)cc1)C(=O)N[C@@H](Cc1ccccc1)C(N)=O` [Compound No. 250, D-Tyr-Asn-Phe(4NH2)-Asn-Ser-Phe-AzaGly-Leu-Arg(Me)-Phe-NH2] (H-[dY]N[Phe(4-NH2)]NSF[azaGly]L[Arg(Me)]F-NH2) the value was 1; for `CNC(=N)NCCC[C@H](NC(=O)[C@H](CC(C)C)NC(=O)NNC(=O)[C@H](Cc1ccccc1)NC(=O)[C@H](CO)NC(=O)[C@H](CC(N)=O)NC(=O)[C@H](Cc1ccccc1)NC(=O)[C@H](N)Cc1ccc(O)cc1)C(=O)N[C@@H](Cc1ccccc1)C(N)=O` [Compound No. 254, D-Tyr-Phe-Asn-Ser-Phe-AzaGly-Leu-Arg(Me)-Phe-NH2] (H-[dY]FNSF[azaGly]L[Arg(Me)]F-NH2), 1; for `CNC(=N)NCCC[C@H](NC(=O)[C@H](CC(C)C)NC(=O)NNC(=O)[C@H](Cc1ccccc1)NC(=O)[C@H](CO)NC(=O)[C@H](CC(N)=O)NC(=O)[C@H](Cc1ccc2ccccc2c1)NC(=O)[C@H](N)Cc1ccc(O)cc1)C(=O)N[C@@H](Cc1ccccc1)C(N)=O` [Compound No. 255, D-Tyr-Nal(2)-Asn-Ser-Phe-AzaGly-Leu-Arg(Me)-Phe-NH2] (H-[dY][2Nal]NSF[azaGly]L[Arg(Me)]F-NH2), 1.
“D-Tyr-Asn-Trp-Gln-Ser-Phe-Gly-Leu-Arg(Me)-Phe-NH2 ([dY]NWQSFGL[Arg(Me)]F-NH2) [Compound No. 209]”: the “Specific Act. (intracellular Ca ion level-increasing activity, specific activity to Metastin (1-54))” value is given as “½”.
Turning to “D-Tyr-Asn-Trp-Ser-Ser-Phe-Gly-Leu-Arg(Me)-Phe-NH2 ([dY]NWSSFGL[Arg(Me)]F-NH2) [Compound No. 207]”, the “Specific Act. (intracellular Ca ion level-increasing activity, specific activity to Metastin (1-54))” value was “½”.
Turning to H-DNWNSFGLRF-NH2 [Compound No. 75], the “Specific Act. (intracellular Ca ion level-increasing activity, specific activity to Metastin (1-54))” value is recorded as 1.
On the same count and under the same terms, for H-YNWNLFGLRF-NH2 [Compound No. 24] the value was 1.
As for H-YNWNSFALRF-NH2 [Compound No. 50], the “Specific Act. (intracellular Ca ion level-increasing activity, specific activity to Metastin (1-54))” value was 30.
Consider H-YNWNSFSLRF-NH2 [Compound No. 101], for which the “Specific Act. (intracellular Ca ion level-increasing activity, specific activity to Metastin (1-54))” value amounted to 10.
